Source: the NIST ThermoML archive (doi:10.1021/acs.jced.9b00074)
Numbers after ± are expanded uncertainties.

Assay: xn = mol fraction of the nth substance listed
Settings: 100 kPa, Liquid; for viscosity: Falling or rolling sphere viscometry; for mass density: Vibrating tube method

## CC12CC3CC(C1)CC(C)(C3)C2 [1,3-dimethyladamantane] + C1C[C@@H]2[C@H]3CC[C@H](C3)[C@@H]2C1
293.15 K, x2 = 0.0998
  viscosity: 3.715 ± 0.079 mPa·s
  mass density: 905.2 ± 0.55 kg/m3
293.15 K, x2 = 0.2023
  viscosity: 3.67 ± 0.078 mPa·s
  mass density: 908.96 ± 0.55 kg/m3
293.15 K, x2 = 0.2984
  viscosity: 3.623 ± 0.078 mPa·s
  mass density: 912.36 ± 0.56 kg/m3
293.15 K, x2 = 0.3996
  viscosity: 3.555 ± 0.077 mPa·s
  mass density: 915.9 ± 0.57 kg/m3
293.15 K, x2 = 0.4998
  viscosity: 3.474 ± 0.075 mPa·s
  mass density: 919.37 ± 0.58 kg/m3
293.15 K, x2 = 0.5973
  viscosity: 3.388 ± 0.074 mPa·s
  mass density: 922.65 ± 0.59 kg/m3
293.15 K, x2 = 0.7005
  viscosity: 3.293 ± 0.072 mPa·s
  mass density: 926.17 ± 0.61 kg/m3
293.15 K, x2 = 0.8026
  viscosity: 3.2 ± 0.071 mPa·s
  mass density: 929.43 ± 0.63 kg/m3
293.15 K, x2 = 0.9
  viscosity: 3.114 ± 0.069 mPa·s
  mass density: 932.64 ± 0.66 kg/m3
298.15 K, x2 = 0.0998
  viscosity: 3.316 ± 0.071 mPa·s
  mass density: 901.59 ± 0.55 kg/m3
298.15 K, x2 = 0.2023
  viscosity: 3.277 ± 0.07 mPa·s
  mass density: 905.3 ± 0.55 kg/m3
298.15 K, x2 = 0.2984
  viscosity: 3.238 ± 0.069 mPa·s
  mass density: 908.68 ± 0.56 kg/m3
298.15 K, x2 = 0.3996
  viscosity: 3.181 ± 0.068 mPa·s
  mass density: 912.18 ± 0.56 kg/m3
298.15 K, x2 = 0.4998
  viscosity: 3.116 ± 0.067 mPa·s
  mass density: 915.61 ± 0.57 kg/m3
298.15 K, x2 = 0.5973
  viscosity: 3.045 ± 0.066 mPa·s
  mass density: 918.86 ± 0.59 kg/m3
298.15 K, x2 = 0.7005
  viscosity: 2.965 ± 0.065 mPa·s
  mass density: 922.34 ± 0.61 kg/m3
298.15 K, x2 = 0.8026
  viscosity: 2.885 ± 0.064 mPa·s
  mass density: 925.59 ± 0.63 kg/m3
298.15 K, x2 = 0.9
  viscosity: 2.814 ± 0.063 mPa·s
  mass density: 928.76 ± 0.66 kg/m3
303.15 K, x2 = 0.0998
  viscosity: 2.977 ± 0.063 mPa·s
  mass density: 897.97 ± 0.55 kg/m3
303.15 K, x2 = 0.2023
  viscosity: 2.947 ± 0.063 mPa·s
  mass density: 901.64 ± 0.55 kg/m3
303.15 K, x2 = 0.2984
  viscosity: 2.915 ± 0.062 mPa·s
  mass density: 904.99 ± 0.55 kg/m3
303.15 K, x2 = 0.3996
  viscosity: 2.867 ± 0.062 mPa·s
  mass density: 908.45 ± 0.56 kg/m3
303.15 K, x2 = 0.4998
  viscosity: 2.81 ± 0.061 mPa·s
  mass density: 911.85 ± 0.57 kg/m3
303.15 K, x2 = 0.5973
  viscosity: 2.75 ± 0.06 mPa·s
  mass density: 915.06 ± 0.59 kg/m3
303.15 K, x2 = 0.7005
  viscosity: 2.68 ± 0.059 mPa·s
  mass density: 918.51 ± 0.6 kg/m3
303.15 K, x2 = 0.8026
  viscosity: 2.618 ± 0.058 mPa·s
  mass density: 921.77 ± 0.63 kg/m3
303.15 K, x2 = 0.9
  viscosity: 2.555 ± 0.057 mPa·s
  mass density: 924.88 ± 0.65 kg/m3
308.15 K, x2 = 0.0998
  viscosity: 2.687 ± 0.057 mPa·s
  mass density: 894.36 ± 0.54 kg/m3
308.15 K, x2 = 0.2023
  viscosity: 2.666 ± 0.057 mPa·s
  mass density: 897.98 ± 0.55 kg/m3
308.15 K, x2 = 0.2984
  viscosity: 2.637 ± 0.057 mPa·s
  mass density: 901.29 ± 0.55 kg/m3
308.15 K, x2 = 0.3996
  viscosity: 2.601 ± 0.056 mPa·s
  mass density: 904.71 ± 0.56 kg/m3
308.15 K, x2 = 0.4998
  viscosity: 2.547 ± 0.055 mPa·s
  mass density: 908.08 ± 0.57 kg/m3
308.15 K, x2 = 0.5973
  viscosity: 2.495 ± 0.054 mPa·s
  mass density: 911.26 ± 0.58 kg/m3
308.15 K, x2 = 0.7005
  viscosity: 2.438 ± 0.053 mPa·s
  mass density: 914.67 ± 0.6 kg/m3
308.15 K, x2 = 0.8026
  viscosity: 2.385 ± 0.053 mPa·s
  mass density: 917.91 ± 0.62 kg/m3
308.15 K, x2 = 0.9
  viscosity: 2.332 ± 0.052 mPa·s
  mass density: 921 ± 0.65 kg/m3
313.15 K, x2 = 0.0998
  viscosity: 2.44 ± 0.052 mPa·s
  mass density: 890.74 ± 0.54 kg/m3
313.15 K, x2 = 0.2023
  viscosity: 2.422 ± 0.052 mPa·s
  mass density: 894.32 ± 0.55 kg/m3
313.15 K, x2 = 0.2984
  viscosity: 2.394 ± 0.051 mPa·s
  mass density: 897.59 ± 0.55 kg/m3
313.15 K, x2 = 0.3996
  viscosity: 2.363 ± 0.051 mPa·s
  mass density: 900.98 ± 0.56 kg/m3
313.15 K, x2 = 0.4998
  viscosity: 2.319 ± 0.05 mPa·s
  mass density: 904.31 ± 0.57 kg/m3
313.15 K, x2 = 0.5973
  viscosity: 2.275 ± 0.05 mPa·s
  mass density: 907.45 ± 0.58 kg/m3
313.15 K, x2 = 0.7005
  viscosity: 2.227 ± 0.049 mPa·s
  mass density: 910.84 ± 0.6 kg/m3
313.15 K, x2 = 0.8026
  viscosity: 2.179 ± 0.048 mPa·s
  mass density: 914.04 ± 0.62 kg/m3
313.15 K, x2 = 0.9
  viscosity: 2.136 ± 0.048 mPa·s
  mass density: 917.12 ± 0.65 kg/m3
318.15 K, x2 = 0.0998
  viscosity: 2.222 ± 0.047 mPa·s
  mass density: 887.12 ± 0.54 kg/m3
318.15 K, x2 = 0.2023
  viscosity: 2.209 ± 0.047 mPa·s
  mass density: 890.65 ± 0.54 kg/m3
318.15 K, x2 = 0.2984
  viscosity: 2.185 ± 0.047 mPa·s
  mass density: 893.89 ± 0.55 kg/m3
318.15 K, x2 = 0.3996
  viscosity: 2.157 ± 0.046 mPa·s
  mass density: 897.24 ± 0.56 kg/m3
318.15 K, x2 = 0.4998
  viscosity: 2.121 ± 0.046 mPa·s
  mass density: 900.53 ± 0.57 kg/m3
318.15 K, x2 = 0.5973
  viscosity: 2.081 ± 0.045 mPa·s
  mass density: 903.65 ± 0.58 kg/m3
318.15 K, x2 = 0.7005
  viscosity: 2.042 ± 0.045 mPa·s
  mass density: 906.99 ± 0.6 kg/m3
318.15 K, x2 = 0.8026
  viscosity: 2.002 ± 0.044 mPa·s
  mass density: 910.17 ± 0.62 kg/m3
318.15 K, x2 = 0.9
  viscosity: 1.964 ± 0.044 mPa·s
  mass density: 913.23 ± 0.65 kg/m3
323.15 K, x2 = 0.0998
  viscosity: 2.032 ± 0.043 mPa·s
  mass density: 883.5 ± 0.54 kg/m3
323.15 K, x2 = 0.2023
  viscosity: 2.02 ± 0.043 mPa·s
  mass density: 886.99 ± 0.54 kg/m3
323.15 K, x2 = 0.2984
  viscosity: 2.001 ± 0.043 mPa·s
  mass density: 890.18 ± 0.55 kg/m3
323.15 K, x2 = 0.3996
  viscosity: 1.978 ± 0.043 mPa·s
  mass density: 893.49 ± 0.55 kg/m3
323.15 K, x2 = 0.4998
  viscosity: 1.946 ± 0.042 mPa·s
  mass density: 896.75 ± 0.56 kg/m3
323.15 K, x2 = 0.5973
  viscosity: 1.915 ± 0.042 mPa·s
  mass density: 899.83 ± 0.58 kg/m3
323.15 K, x2 = 0.7005
  viscosity: 1.879 ± 0.041 mPa·s
  mass density: 903.15 ± 0.59 kg/m3
323.15 K, x2 = 0.8026
  viscosity: 1.844 ± 0.041 mPa·s
  mass density: 906.3 ± 0.62 kg/m3
323.15 K, x2 = 0.9
  viscosity: 1.812 ± 0.04 mPa·s
  mass density: 909.33 ± 0.64 kg/m3
328.15 K, x2 = 0.0998
  viscosity: 1.867 ± 0.04 mPa·s
  mass density: 879.87 ± 0.54 kg/m3
328.15 K, x2 = 0.2023
  viscosity: 1.857 ± 0.04 mPa·s
  mass density: 883.31 ± 0.54 kg/m3
328.15 K, x2 = 0.2984
  viscosity: 1.839 ± 0.039 mPa·s
  mass density: 886.47 ± 0.55 kg/m3
328.15 K, x2 = 0.3996
  viscosity: 1.819 ± 0.039 mPa·s
  mass density: 889.74 ± 0.55 kg/m3
328.15 K, x2 = 0.4998
  viscosity: 1.794 ± 0.039 mPa·s
  mass density: 892.97 ± 0.56 kg/m3
328.15 K, x2 = 0.5973
  viscosity: 1.764 ± 0.038 mPa·s
  mass density: 896.02 ± 0.58 kg/m3
328.15 K, x2 = 0.7005
  viscosity: 1.734 ± 0.038 mPa·s
  mass density: 899.3 ± 0.59 kg/m3
328.15 K, x2 = 0.8026
  viscosity: 1.704 ± 0.038 mPa·s
  mass density: 902.43 ± 0.62 kg/m3
328.15 K, x2 = 0.9
  viscosity: 1.677 ± 0.037 mPa·s
  mass density: 905.43 ± 0.64 kg/m3
333.15 K, x2 = 0.0998
  viscosity: 1.719 ± 0.037 mPa·s
  mass density: 876.23 ± 0.53 kg/m3
333.15 K, x2 = 0.2023
  viscosity: 1.714 ± 0.037 mPa·s
  mass density: 879.65 ± 0.54 kg/m3
333.15 K, x2 = 0.2984
  viscosity: 1.696 ± 0.036 mPa·s
  mass density: 882.76 ± 0.54 kg/m3
333.15 K, x2 = 0.3996
  viscosity: 1.679 ± 0.036 mPa·s
  mass density: 885.99 ± 0.55 kg/m3
333.15 K, x2 = 0.4998
  viscosity: 1.657 ± 0.036 mPa·s
  mass density: 889.18 ± 0.56 kg/m3
333.15 K, x2 = 0.5973
  viscosity: 1.631 ± 0.036 mPa·s
  mass density: 892.2 ± 0.57 kg/m3
333.15 K, x2 = 0.7005
  viscosity: 1.605 ± 0.035 mPa·s
  mass density: 895.45 ± 0.59 kg/m3
333.15 K, x2 = 0.8026
  viscosity: 1.58 ± 0.035 mPa·s
  mass density: 898.54 ± 0.61 kg/m3
333.15 K, x2 = 0.9
  viscosity: 1.557 ± 0.035 mPa·s
  mass density: 901.52 ± 0.64 kg/m3
